These results are taken from patent publication US12298306B2, “Marker for identifying patients with gliobastoma who respond positively to the drug regorafenib” (ISTITUTO ONCOLOGICO VENETO IOV-IRCCS, priority 2018, dated 2025).

The subject of one assay is glioblastoma. As to the kind of experiment: REGOMA randomized, controlled, phase II clinical trial, survival by pACC Ser79 marker status. Type of assay: in vivo, patients. On the procedure: Once all samples of the REGOMA trial which are available for the translational study (Table 1) have been stained, the biostatistics and clinical trial team of IOV (Mr. De Salvo—doctor) performed a statistical analysis to evaluate the possible prognostic or predictive meaning of the response of pACC^Ser79.
To evaluate the prognostic role of pACC^Ser79, an analysis was carried out according to the Cox model, considering pACC^Ser79 as an independent variable and dividing the patient samples into positive and negative (as reported above), and survival, being both free from disease progression and as a whole, as a dependent variable.
To evaluate the predictive role of pACC^Ser79, the variable of the treatment received by the patient was added to the Cox model (in particular, according to a randomized assignment, the patient received Regorafenib or Lomustine) in addition to the interaction factor of received treatment*status of the marker pACC^Ser79 (positive/negative).

For assay [1], the system named is glioblastoma at diagnosis. As to conditions: in association with standard treatment; cited from earlier work.

Turning to `CNC(=O)c1cc(Oc2ccc(NC(=O)Nc3ccc(Cl)c(C(F)(F)F)c3)c(F)c2)ccn1` [Regorafenib], the “benefit from treatment in patients with neoplastic tissue positive to pACC Ser79” value with glioblastoma (Cox model with treatment*marker interaction, comparator Lomustine) was “most benefited”. For the same compound, in the assay on glioblastoma (pACC Ser79 positive tumor samples, second-line treatment, REGOMA), the “survival after second-line treatment in patients whose tumor samples express pACC Ser79” value was “longer survival”.
bevacizumab: in assay [1], the PFS entry is on record as “improved”, the quality of life entry is listed as “improved” and the “survival (OS)” value was “no significant survival advantages”.
